According to ChEMBL document CHEMBL1159126, “Salicylanilide carbamates: antitubercular agents active against multidrug-resistant Mycobacterium tuberculosis strains” (Bioorg Med Chem, 2010):
Converted amounts (≈) assume the structure as drawn.

Experiments:
[1] = tested on: Mycobacterium tuberculosis; experiment: microbe, parasite or virus in culture; conditions: 331/88, 504 h
Description: Antimycobacterial activity against Mycobacterium tuberculosis 331/88 after 21 days by micromethod

Mycobacterium kansasii [2] = experiment: Antimycobacterial activity against Mycobacterium kansasii 6509/96 after 14 days by micromethod; format: functional; conditions: 6509/96, 336 h
Mycobacterium kansasii [3] = experiment: Antimycobacterial activity against Mycobacterium kansasii 6509/96 after 21 days by micromethod; format: functional; conditions: 6509/96, 504 h
[4] = tested on: Mycobacterium tuberculosis; experiment: microbe, parasite or virus in culture; conditions: 331/88, 336 h
Description: Antimycobacterial activity against Mycobacterium tuberculosis 331/88 after 14 days by micromethod

Mycobacterium avium [5] = experiment: Antimycobacterial activity against Mycobacterium avium 330/88 after 14 days by micromethod; format: functional; conditions: 330/88, 336 h
[6] = Partition coefficient, log P of the compound; format: physicochemical; conditions: octanol/water
Mycobacterium avium [7] = experiment: Antimycobacterial activity against Mycobacterium avium 330/88 after 21 days by micromethod; format: functional; conditions: 330/88, 504 h
Mycobacterium kansasii [8] = experiment: Antimycobacterial activity against Mycobacterium kansasii 235/80 after 21 days by micromethod; format: functional; conditions: 235/80, 504 h
Mycobacterium kansasii [9] = experiment: Antimycobacterial activity against Mycobacterium kansasii 235/80 after 14 days by micromethod; format: functional; conditions: 235/80, 336 h
[10] = Toxicity against human HCT8 cells after 72 hrs by XTT assay; format: cell-based, HCT-8

| Compound | MIC [1] | MIC (Mycobacterium kansasii [2]) | MIC (Mycobacterium kansasii [3]) | MIC [4] | MIC (Mycobacterium avium [5]) | logP [6] | MIC (Mycobacterium avium [7]) | MIC (Mycobacterium kansasii [8]) | MIC (Mycobacterium kansasii [9]) | EC50 at 72 h [10] |
| --- | --- | --- | --- | --- | --- | --- | --- | --- | --- | --- |
| CCCCCCCCCNC(=O)Oc1ccc(Cl)cc1C(=O)Nc1cccc(Cl)c1 | 2 µM (≈ 0.903 µg/mL) | 4 µM (≈ 1.81 µg/mL) | 4 µM (≈ 1.81 µg/mL) | 1 µM (≈ 0.451 µg/mL) | 2 µM (≈ 0.903 µg/mL) | 6.78 | 4 µM (≈ 1.81 µg/mL) | 4 µM (≈ 1.81 µg/mL) | 4 µM (≈ 1.81 µg/mL) |  |
| CCCCCCCCCCNC(=O)Oc1ccc(Cl)cc1C(=O)Nc1cccc(Cl)c1 | 2 µM (≈ 0.931 µg/mL) | 8 µM (≈ 3.72 µg/mL) | 8 µM (≈ 3.72 µg/mL) | 1 µM (≈ 0.465 µg/mL) | 8 µM (≈ 3.72 µg/mL) | 7.19 | 8 µM (≈ 3.72 µg/mL) | 8 µM (≈ 3.72 µg/mL) | 8 µM (≈ 3.72 µg/mL) |  |
| CCCCCCCCCCCNC(=O)Oc1ccc(Cl)cc1C(=O)Nc1ccc(Cl)cc1 | 2 µM (≈ 0.959 µg/mL) | 8 µM (≈ 3.84 µg/mL) | 8 µM (≈ 3.84 µg/mL) | 2 µM (≈ 0.959 µg/mL) | 8 µM (≈ 3.84 µg/mL) | 7.61 | 8 µM (≈ 3.84 µg/mL) | 8 µM (≈ 3.84 µg/mL) | 8 µM (≈ 3.84 µg/mL) |  |
| CCNC(=O)Oc1ccc(Cl)cc1C(=O)Nc1cccc(Cl)c1 | 2 µM (≈ 0.706 µg/mL) | 8 µM (≈ 2.83 µg/mL) | 8 µM (≈ 2.83 µg/mL) | 2 µM (≈ 0.706 µg/mL) | 8 µM (≈ 2.83 µg/mL) | 3.79 | 8 µM (≈ 2.83 µg/mL) | 8 µM (≈ 2.83 µg/mL) | 8 µM (≈ 2.83 µg/mL) |  |
| CCCCNC(=O)Oc1ccc(Cl)cc1C(=O)Nc1cccc(Cl)c1 | 4 µM (≈ 1.53 µg/mL) | 8 µM (≈ 3.05 µg/mL) | 16 µM (≈ 6.1 µg/mL) | 2 µM (≈ 0.763 µg/mL) | 8 µM (≈ 3.05 µg/mL) | 4.69 | 16 µM (≈ 6.1 µg/mL) | 16 µM (≈ 6.1 µg/mL) | 16 µM (≈ 6.1 µg/mL) |  |
| CCCCCNC(=O)Oc1ccc(Cl)cc1C(=O)Nc1cccc(Cl)c1 | 4 µM (≈ 1.58 µg/mL) | 8 µM (≈ 3.16 µg/mL) | 8 µM (≈ 3.16 µg/mL) | 2 µM (≈ 0.791 µg/mL) | 8 µM (≈ 3.16 µg/mL) | 5.11 | 8 µM (≈ 3.16 µg/mL) | 8 µM (≈ 3.16 µg/mL) | 8 µM (≈ 3.16 µg/mL) |  |
| CCNC(=O)Oc1ccc(Cl)cc1C(=O)Nc1ccc(Cl)c(Cl)c1 | 1 µM (≈ 0.388 µg/mL) | 2 µM (≈ 0.775 µg/mL) | 4 µM (≈ 1.55 µg/mL) | 0.5 µM (≈ 0.194 µg/mL) | 16 µM (≈ 6.2 µg/mL) | 4.35 | 32 µM (≈ 12.4 µg/mL) | 4 µM (≈ 1.55 µg/mL) | 2 µM (≈ 0.775 µg/mL) | 31 µM |
| CCCCNC(=O)Oc1ccc(Cl)cc1C(=O)Nc1ccc(Cl)c(Cl)c1 | 1 µM (≈ 0.416 µg/mL) | 2 µM (≈ 0.831 µg/mL) | 4 µM (≈ 1.66 µg/mL) | 0.5 µM (≈ 0.208 µg/mL) | 8 µM (≈ 3.33 µg/mL) | 5.25 | 16 µM (≈ 6.65 µg/mL) | 2 µM (≈ 0.831 µg/mL) | 2 µM (≈ 0.831 µg/mL) | 38 µM |
| CCNC(=O)Oc1ccc(Cl)cc1C(=O)Nc1ccc(Cl)cc1 | 2 µM (≈ 0.706 µg/mL) | 4 µM (≈ 1.41 µg/mL) | 8 µM (≈ 2.83 µg/mL) | 1 µM (≈ 0.353 µg/mL) | 8 µM (≈ 2.83 µg/mL) | 3.79 | 8 µM (≈ 2.83 µg/mL) | 8 µM (≈ 2.83 µg/mL) | 4 µM (≈ 1.41 µg/mL) |  |
| CCCCCCNC(=O)Oc1ccc(Cl)cc1C(=O)Nc1ccc(Cl)cc1 | 2 µM (≈ 0.819 µg/mL) | 2 µM (≈ 0.819 µg/mL) | 4 µM (≈ 1.64 µg/mL) | 1 µM (≈ 0.409 µg/mL) | 4 µM (≈ 1.64 µg/mL) | 5.53 | 8 µM (≈ 3.27 µg/mL) | 4 µM (≈ 1.64 µg/mL) | 4 µM (≈ 1.64 µg/mL) |  |
| CCCCCCCCCCCNC(=O)Oc1ccc(Cl)cc1C(=O)Nc1ccc(Cl)c(Cl)c1 | 2 µM (≈ 1.03 µg/mL) | 4 µM (≈ 2.06 µg/mL) | 4 µM (≈ 2.06 µg/mL) | 2 µM (≈ 1.03 µg/mL) | 16 µM (≈ 8.22 µg/mL) | 8.17 | 16 µM (≈ 8.22 µg/mL) | 4 µM (≈ 2.06 µg/mL) | 4 µM (≈ 2.06 µg/mL) |  |
| CCCCCCCCCNC(=O)Oc1ccc(Cl)cc1C(=O)Nc1ccc(Cl)cc1 | 2 µM (≈ 0.903 µg/mL) | 4 µM (≈ 1.81 µg/mL) | 4 µM (≈ 1.81 µg/mL) | 2 µM (≈ 0.903 µg/mL) | 8 µM (≈ 3.61 µg/mL) | 6.78 | 16 µM (≈ 7.22 µg/mL) | 4 µM (≈ 1.81 µg/mL) | 4 µM (≈ 1.81 µg/mL) |  |
| CCCCCCCCCCNC(=O)Oc1ccc(Cl)cc1C(=O)Nc1ccc(Cl)cc1 | 2 µM (≈ 0.931 µg/mL) | 8 µM (≈ 3.72 µg/mL) | 8 µM (≈ 3.72 µg/mL) | 2 µM (≈ 0.931 µg/mL) | 8 µM (≈ 3.72 µg/mL) | 7.19 | 8 µM (≈ 3.72 µg/mL) | 8 µM (≈ 3.72 µg/mL) | 8 µM (≈ 3.72 µg/mL) |  |
| CCCCCCCNC(=O)Oc1ccc(Cl)cc1C(=O)Nc1ccc(Cl)cc1 | 2 µM (≈ 0.847 µg/mL) | 4 µM (≈ 1.69 µg/mL) | 4 µM (≈ 1.69 µg/mL) | 2 µM (≈ 0.847 µg/mL) | 8 µM (≈ 3.39 µg/mL) | 5.94 | 8 µM (≈ 3.39 µg/mL) | 8 µM (≈ 3.39 µg/mL) | 8 µM (≈ 3.39 µg/mL) |  |
| CCCCCCCNC(=O)Oc1ccc(Cl)cc1C(=O)Nc1cccc(Cl)c1 | 2 µM (≈ 0.847 µg/mL) | 8 µM (≈ 3.39 µg/mL) | 8 µM (≈ 3.39 µg/mL) | 1 µM (≈ 0.423 µg/mL) | 8 µM (≈ 3.39 µg/mL) | 5.94 | 8 µM (≈ 3.39 µg/mL) | 8 µM (≈ 3.39 µg/mL) | 4 µM (≈ 1.69 µg/mL) |  |
| CCCCCCCCCNC(=O)Oc1ccc(Cl)cc1C(=O)Nc1ccc(Cl)c(Cl)c1 | 2 µM (≈ 0.972 µg/mL) | 4 µM (≈ 1.94 µg/mL) | 4 µM (≈ 1.94 µg/mL) | 2 µM (≈ 0.972 µg/mL) | 8 µM (≈ 3.89 µg/mL) | 7.34 | 8 µM (≈ 3.89 µg/mL) | 8 µM (≈ 3.89 µg/mL) | 8 µM (≈ 3.89 µg/mL) |  |
| CCCCCCCCNC(=O)Oc1ccc(Cl)cc1C(=O)Nc1ccc(Cl)cc1 | 2 µM (≈ 0.875 µg/mL) | 4 µM (≈ 1.75 µg/mL) | 4 µM (≈ 1.75 µg/mL) | 2 µM (≈ 0.875 µg/mL) | 8 µM (≈ 3.5 µg/mL) | 6.36 | 8 µM (≈ 3.5 µg/mL) | 8 µM (≈ 3.5 µg/mL) | 8 µM (≈ 3.5 µg/mL) |  |
| CCCCCCCCCCCNC(=O)Oc1ccc(Cl)cc1C(=O)Nc1cccc(Cl)c1 | 2 µM (≈ 0.959 µg/mL) | 8 µM (≈ 3.84 µg/mL) | 8 µM (≈ 3.84 µg/mL) | 2 µM (≈ 0.959 µg/mL) | 8 µM (≈ 3.84 µg/mL) | 7.61 | 8 µM (≈ 3.84 µg/mL) | 8 µM (≈ 3.84 µg/mL) | 8 µM (≈ 3.84 µg/mL) |  |
| CCCCCCCCCCNC(=O)Oc1ccc(Cl)cc1C(=O)Nc1ccc(Cl)c(Cl)c1 | 2 µM (≈ 1 µg/mL) | 2 µM (≈ 1 µg/mL) | 4 µM (≈ 2 µg/mL) | 2 µM (≈ 1 µg/mL) | 8 µM (≈ 4 µg/mL) | 7.77 | 8 µM (≈ 4 µg/mL) | 4 µM (≈ 2 µg/mL) | 4 µM (≈ 2 µg/mL) |  |
| CCCCNC(=O)Oc1ccc(Cl)cc1C(=O)Nc1ccc(Cl)cc1 | 2 µM (≈ 0.763 µg/mL) | 2 µM (≈ 0.763 µg/mL) | 4 µM (≈ 1.53 µg/mL) | 2 µM (≈ 0.763 µg/mL) | 4 µM (≈ 1.53 µg/mL) | 4.69 | 8 µM (≈ 3.05 µg/mL) | 4 µM (≈ 1.53 µg/mL) | 4 µM (≈ 1.53 µg/mL) |  |
| CCCCCCNC(=O)Oc1ccc(Cl)cc1C(=O)Nc1cccc(Cl)c1 | 1 µM (≈ 0.409 µg/mL) | 4 µM (≈ 1.64 µg/mL) | 4 µM (≈ 1.64 µg/mL) | 0.5 µM (≈ 0.205 µg/mL) | 8 µM (≈ 3.27 µg/mL) | 5.53 | 8 µM (≈ 3.27 µg/mL) | 4 µM (≈ 1.64 µg/mL) | 4 µM (≈ 1.64 µg/mL) | 14.9 µM |
| CCCCCCCCNC(=O)Oc1ccc(Cl)cc1C(=O)Nc1cccc(Cl)c1 | 2 µM (≈ 0.875 µg/mL) | 4 µM (≈ 1.75 µg/mL) | 8 µM (≈ 3.5 µg/mL) | 2 µM (≈ 0.875 µg/mL) | 4 µM (≈ 1.75 µg/mL) | 6.36 | 4 µM (≈ 1.75 µg/mL) | 8 µM (≈ 3.5 µg/mL) | 8 µM (≈ 3.5 µg/mL) |  |
| NNC(=O)c1ccncc1 [ISONIAZID] | 0.5 µM (≈ 0.0686 µg/mL) | 4 µM (≈ 0.549 µg/mL) | 4 µM (≈ 0.549 µg/mL) | 0.5 µM (≈ 0.0686 µg/mL) | > 250 µM |  | > 250 µM | > 250 µM | > 250 µM | > 100 µM |
